Source: US20250179047A1, “5-[7-(3,4-DIHYDRO-1H-ISOQUINOLINE-2-CARBONYL)-1,2,3,4 TETRAHYDROISOQUINOLIN-6-YL]-1H-PYRROLE-3-CARBOXAMIDE DERIVATIVES, PHARMACEUTICAL COMPOSITIONS CONTAINING THEM AND THEIR USES AS PRO-APOPTOTIC AGENTS” (LES LABORATOIRES SERVIER, priority 2022, published 2025)
pKi: −log10 of the molar value.

What was measured:
BCL2 WT = BCL2 WT (Homo sapiens (Human), UniProt P10415); test: TR-FRET competitive binding assay, BCL2 WT; details: Ki determined from IC50, read-out: TR_FRET EKI_Bcl2 WT
In short: (§1)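 Terbium-labelled N-terminal Halo-fusion BCL2 or BCLXL (E. coli), 0.5 nM, competed against fluorescein-labelled PUMA peptide (2 or 20 nM) for 2 h at 23° C in 50 mM Hepes pH 7.5, 150 mM NaCl, 5% DMSO. TR-FRET 520/495 nm ratio gave IC50 by four-parameter fit; Ki derived from IC50.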

BCL2 G101V [1] = target: BCL2 G101V (Homo sapiens, UniProt P10415, G101V); test: TR-FRET competitive binding assay, BCL2 G101V; details: BCL2 G101V; Ki determined from IC50; read-out: TR_FRET EKI_Bcl2 G101V
In short: as §1

BCL2 G101V [2] = test: TR-FRET competitive binding assay, BCL2 G101V; set-up: species or system human; details: ratio Ki BCL2 G101V / Ki BCL2 WT
In short: as §1

BCL2 D103Y = BCL2 D103Y (Homo sapiens, UniProt P10415, D103Y); test: TR-FRET competitive binding assay, BCL2 D103Y; details: Ki determined from IC50, read-out: TR_FRET EKI_Bcl2 D103Y
In short: as §1

BCL2 F104I = BCL2 F104I (Homo sapiens, UniProt P10415, F104I); test: TR-FRET competitive binding assay, BCL2 F104I; details: Ki determined from IC50, read-out: TR_FRET EKI_Bcl2 F104I
In short: as §1

BCL2 D111A = BCL2 D111A (Homo sapiens, UniProt P10415, D111A); test: TR-FRET competitive binding assay, BCL2 D111A; details: Ki determined from IC50, read-out: TR_FRET EKI_Bcl2 D111A
In short: as §1

BCLXL WT = BCLXL WT (Homo sapiens (Human), UniProt Q07817); test: TR-FRET competitive binding assay, BCLXL WT; details: for pKi: BCLXL WT, Ki determined from IC50, read-out: TR_FRET EKI BclxL; for TR_FRET EKI BCLxL/WT selectivty ratio: ratio Ki BCLxL / Ki BCL2 WT
In short: as §1

KMS-12-PE Bcl-2 WT = test: In vitro cytotoxicity CellTiter-Glo 48 h, KMS-12-PE Bcl-2 WT; assay type: cell-based; details: C50 = concentration needed to reach 50% of the cellular viability
In short: (§2)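 CTG luminescence read-out; C50 = concentration reaching 50% cellular viability. Cells: KMS-12-PE expressing Bcl-2 WT or G101V (lentiviral, TagRFP-sorted). 11-pt curve, 48 h, 37 °C/5% CO2.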

KMS-12-PE Bcl-2 G101V = test: In vitro cytotoxicity CellTiter-Glo 48 h, KMS-12-PE Bcl-2 G101V; assay type: cell-based; details: for Ratio (G101V/WT): C50 KMS-12-PE Bcl-2 G101V over C50 KMS-12-PE Bcl-2 WT; for IC50: Homo sapiens, KMS-12-PE, 48 h, CellTiter-Glo, C50 = concentration needed to reach 50% of the cellular viability
In short: as §2

Sequence of BCLXL WT (Q07817 other isoform, or with tags, fused parts or gaps): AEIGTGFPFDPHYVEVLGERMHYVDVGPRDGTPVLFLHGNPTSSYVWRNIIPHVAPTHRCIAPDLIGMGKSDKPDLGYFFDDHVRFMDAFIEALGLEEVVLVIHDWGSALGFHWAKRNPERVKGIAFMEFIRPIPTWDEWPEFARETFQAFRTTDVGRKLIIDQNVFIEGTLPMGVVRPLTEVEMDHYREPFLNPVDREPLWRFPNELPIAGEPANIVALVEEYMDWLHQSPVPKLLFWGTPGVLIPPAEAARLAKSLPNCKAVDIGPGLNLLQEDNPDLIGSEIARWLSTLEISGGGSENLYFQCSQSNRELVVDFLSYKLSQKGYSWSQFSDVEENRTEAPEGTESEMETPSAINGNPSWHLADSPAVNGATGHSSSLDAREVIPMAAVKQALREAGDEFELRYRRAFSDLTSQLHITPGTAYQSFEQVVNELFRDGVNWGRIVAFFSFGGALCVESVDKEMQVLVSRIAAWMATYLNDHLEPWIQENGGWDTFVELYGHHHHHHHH

SMILES | pKi (BCL2 WT) | pKi (BCL2 G101V [1]) | TR_FRET EKI G101V/WT selectivty ratio (BCL2 G101V [2]) | pKi (BCL2 D103Y) | pKi (BCL2 F104I) | pKi (BCL2 D111A) | pKi (BCLXL WT) | TR_FRET EKI BCLxL/WT selectivty ratio (BCLXL WT) | IC50 (KMS-12-PE Bcl-2 WT; Homo sapiens, KMS-12-PE) | Ratio (G101V/WT) (KMS-12-PE Bcl-2 G101V) | IC50 (KMS-12-PE Bcl-2 G101V) | IC50 (KMS-12-PE Bcl-2 WT)
Cc1c(C(=O)N(c2ccc(O)cc2)c2cnc3c(cnn3C)c2)cc(-c2cc3c(cc2C(=O)N2Cc4ccccc4C[C@H]2C)CN(C(=O)Cc2ccc(OCCN4CCOCC4)cc2)CC3)n1C [Example 62, N-(4-hydroxyphenyl)-1,2-dimethyl-5-(7-{[(3R)-3-methyl-3,4-dihydro-1H-isoquinolin-2-yl]carbonyl}-2-(2-{4-[2-(morpholin-4-yl)ethoxy]phenyl}acetyl)-3,4-dihydro-1H-isoquinolin-6-yl)-N-{1-methylpyrazolo[3,4-b]pyridin-5-yl}pyrrole-3-carboxamide] | 10.22 | 9.52 | 5.5 | 9.33 | 9.42 | 10.05 | 8.62 | 38.7 | 0.0118 µM | 7.56 | 0.0892 µM | –
Cc1c(N(C(=O)c2cc(-c3cc4c(cc3C(=O)N3Cc5ccccc5C[C@H]3C)CN(C(=O)Cc3ccc(OCCN5CCOCC5)cc3)CC4)n(C)c2C)c2ccccc2)cc(C#N)n1C [Example 65, N-(5-cyano-1,2-dimethylpyrrol-3-yl)-1,2-dimethyl-5-(7-{[(3R)-3-methyl-3,4-dihydro-1H-isoquinolin-2-yl]carbonyl}-2-(2-{4-[2-(morpholin-4-yl)ethoxy]phenyl}acetyl)-3,4-dihydro-1H-isoquinolin-6-yl)-N-phenylpyrrole-3-carboxamide] | 10.10 | 9.15 | 9.4 | 9.10 | 8.95 | 9.85 | 8.39 | 52.6 | – | 15 | 0.0414 µM | 0.0028 µM
Cc1c(C(=O)N(c2ccc(O)cc2)c2cc(C#N)n(C3CC3)c2C)cc(-c2cc3c(cc2C(=O)N2Cc4ccccc4C[C@H]2C)CN(C(=O)Cc2ccc(OCCN4CCOCC4)cc2)CC3)n1C [Example 71, N-(5-cyano-1-cyclopropyl-2-methyl-pyrrol-3-yl)-N-(4-hydroxyphenyl)-1,2-dimethyl-5-[7-[(3R)-3-methyl-3,4-dihydro-1H-isoquinoline-2-carbonyl]-2-[2-[4-(2-morpholinoethoxy)phenyl]acetyl]-3,4-dihydro-1H-isoquinolin-6-yl]pyrrole-3-carboxamide] | 9.82 | 8.92 | 8.0 | 9.17 | 8.99 | 9.51 | 8.80 | 10.7 | 0.0092 µM | 3.88 | 0.0356 µM | –
COc1ncc(N(C(=O)c2cc(-c3cc4c(cc3C(=O)N3Cc5ccccc5C[C@H]3C)CN(C(=O)Cc3ccc(OCCN5CCOCC5)cc3)CC4)n(C)c2C)c2ccc(O)cc2)cc1F [Example 72, N-(5-fluoro-6-methoxypyridin-3-yl)-N-(4-hydroxyphenyl)-1,2-dimethyl-5-(7-{[(3R)-3-methyl-3,4-dihydro-1H-isoquinolin-2-yl]carbonyl}-2-(2-{4-[2-(morpholin-4-yl)ethoxy]phenyl}acetyl)-3,4-dihydro-1H-isoquinolin-6-yl)pyrrole-3-carboxamide] | 9.85 | 9.05 | 6.1 | 9.43 | 8.93 | 9.68 | 8.43 | 26.4 | 0.0066 µM | 6.42 | 0.0427 µM | –
COc1ccc(N(C(=O)c2cc(-c3cc4c(cc3C(=O)N3Cc5ccccc5C[C@H]3C)CN(C(=O)Cc3ccc(OCCN5CCOCC5)cc3)CC4)n(C)c2C)c2ccc(O)cc2)cc1C#N [Example 81, N-(3-cyano-4-methoxyphenyl)-N-(4-hydroxyphenyl)-1,2-dimethyl-5-(7-{[(3R)-3-methyl-3,4-dihydro-1H-isoquinolin-2-yl]carbonyl}-2-(2-{4-[2-(morpholin-4-yl)ethoxy]phenyl}acetyl)-3,4-dihydro-1H-isoquinolin-6-yl)pyrrole-3-carboxamide] | 9.72 | 9.22 | 2.9 | 9.34 | 9.28 | 9.40 | 8.28 | 27.9 | 0.007 µM | 5.6429 | 0.0395 µM | –

Compounds with a higher pKi (BCL2 WT), results first:

pKi (BCL2 WT) | pKi (BCL2 G101V [1]) | TR_FRET EKI G101V/WT selectivty ratio (BCL2 G101V [2]) | pKi (BCL2 D103Y) | pKi (BCL2 F104I) | pKi (BCL2 D111A) | pKi (BCLXL WT) | TR_FRET EKI BCLxL/WT selectivty ratio (BCLXL WT) | SMILES | IC50 (KMS-12-PE Bcl-2 WT; Homo sapiens, KMS-12-PE) | Ratio (G101V/WT) (KMS-12-PE Bcl-2 G101V) | IC50 (KMS-12-PE Bcl-2 G101V) | IC50 (KMS-12-PE Bcl-2 WT)
10.30 | 9.70 | 3.5 | 9.85 | 9.68 | 10.05 | 9.00 | 19.2 | Cc1c(N(C(=O)c2cc(-c3cc4c(cc3C(=O)N3Cc5ccccc5C[C@H]3C)CN(C(=O)Cc3ccc(OCCN(C)C5COC5)cc3)CC4)n(C)c2C)c2ccc(O)cc2)cc(C#N)n1C [Example 60, N-(5-cyano-1,2-dimethyl-1H-pyrrol-3-yl)-N-(4-hydroxyphenyl)-1,2-dimethyl-5-{2-[2-(4-{2-[methyl(oxetan-3-yl)amino]ethoxy}phenyl)acetyl]-7-[(3R)-3-methyl-1,2,3,4-tetrahydroisoquinoline-2-carbonyl]-1,2,3,4-tetrahydroisoquinolin-6-yl}-1H-pyrrole-3-carboxamide] | 0.0075 µM | 4.91 | 0.0367 µM | –
10.40 | 9.70 | 5.0 | 9.89 | 8.99 | 9.74 | 8.82 | 35.7 | Cc1c(N(C(=O)c2cc(-c3cc4c(cc3C(=O)N3Cc5ccccc5C[C@H]3C)CN(C(=O)Cc3ccc(OCCN(C)C5CC5)nc3)CC4)n(C)c2C)c2ccc(O)cc2)cc(C#N)n1C [Example 61, N-(5-cyano-1,2-dimethyl-1H-pyrrol-3-yl)-5-{2-[2-(6-{2-[cyclopropyl(methyl)amino]ethoxy}pyridin-3-yl)acetyl]-7-[(3R)-3-methyl-1,2,3,4-tetrahydroisoquinoline-2-carbonyl]-1,2,3,4-tetrahydroisoquinolin-6-yl}-N-(4-hydroxyphenyl)-1,2-dimethyl-1H-pyrrole-3-carboxamide] | 0.0143 µM | 5.76 | 0.0824 µM | –
10.70 | 10.00 | 2.8 | 10.15 | 10.40 | 10.05 | 8.96 | 52.4 | Cc1c(N(C(=O)c2cc(-c3cc4c(cc3C(=O)N3Cc5ccccc5C[C@H]3CCN3CCCCC3)CN(C(=O)Cc3ccc(OCCN5CCOCC5)cc3F)CC4)n(C)c2C)c2ccc(O)cc2)cc(C#N)n1C [Example 74, N-(5-cyano-1,2-dimethyl-1H-pyrrol-3-yl)-5-[2-(2-{2-fluoro-4-[2-(morpholin-4-yl)ethoxy]phenyl}acetyl)-7-[(3S)-3-[2-(piperidin-1-yl)ethyl]-1,2,3,4-tetrahydroisoquinoline-2-carbonyl]-1,2,3,4-tetrahydroisoquinolin-6-yl]-N-(4-hydroxyphenyl)-1,2-dimethyl-1H-pyrrole-3-carboxamide] | 0.0375 µM | 2.36 | 0.0885 µM | –
